Measurements published in ChEMBL document CHEMBL3596139, “N-Arylalkylbenzo[d]thiazole-2-carboxamides as anti-mycobacterial agents: design, new methods of synthesis and biological evaluation” (Medchemcomm, 2014).
In brackets after ≈: the same amount, converted by molar mass.

Key:
[1] = system: Mycobacterium tuberculosis; test: Antimycobacterial activity against Mycobacterium tuberculosis H37Rv ATCC 27294 after 28 days by two-fold serial dilution method; assay type: functional; details: H37Rv ATCC 27294, 672 h
[2] = Cytotoxicity against HEK293T cells assessed as inhibition of cell viability at 50 ug/ml after 72 hrs by MTT assay relative to control; assay type: cell-based, HEK-293T; details: human, read-out: INH
[3] = Therapeutic index, ratio of compound cytotoxic activity for HEK293T cells to antimycobacterial activity against Mycobacterium tuberculosis H37Rv ATCC 27294; assay type: cell-based, HEK-293T; details: human, read-out: TI

SMILES | MIC99 [1] | cytotoxicity at 72 h, 50 ug/ml [2] | selectivity ratio [3]
Nc1ccc(CCNC(=O)c2nc3cc(C(F)(F)F)ccc3s2)cc1 | 50 µg/mL (≈ 137 µM) | – | –
O=C(NCc1ccc(F)cc1)c1nc2ccccc2s1 | 6.25 µg/mL (≈ 21.8 µM) | 50.3% | –
O=C(NCc1ccc(Cl)cc1)c1nc2ccccc2s1 | 50 µg/mL (≈ 165 µM) | – | –
O=C(NCc1ccc2c(c1)OCO2)c1nc2cc(Cl)ccc2s1 | 25 µg/mL (≈ 72.1 µM) | – | –
O=C(NCCc1ccccc1)c1nc2ccccc2s1 | 3.12 µg/mL (≈ 11.1 µM) | 22% | –
Nc1ccc(CCNC(=O)c2nc3cc(Cl)ccc3s2)cc1 | 1.56 µg/mL (≈ 4.7 µM) | 25.9% | –
O=C(NCc1ccccc1)c1nc2cc(Cl)ccc2s1 | 6.25 µg/mL (≈ 20.6 µM) | 40.1% | –
O=C(NCc1cccc(Cl)c1)c1nc2cc(Cl)ccc2s1 | 25 µg/mL (≈ 74.1 µM) | – | –
O=C(NCc1cc(F)ccc1F)c1nc2ccccc2s1 | 6.25 µg/mL (≈ 20.5 µM) | 52.1% | –
O=C(NCc1ccc(F)cc1)c1nc2cc(Cl)ccc2s1 | 25 µg/mL (≈ 77.9 µM) | – | –
O=C(NCc1ccc(Cl)cc1Cl)c1nc2ccccc2s1 | 50 µg/mL (≈ 148 µM) | – | –
O=C(NCc1cccc(Cl)c1)c1nc2ccccc2s1 | 50 µg/mL (≈ 165 µM) | – | –
COc1ccc(CCNC(=O)c2nc3cc(C(F)(F)F)ccc3s2)cc1OC | 25 µg/mL (≈ 60.9 µM) | – | –
O=C(NCc1ccccc1F)c1nc2ccccc2s1 | 25 µg/mL (≈ 87.3 µM) | – | –
Cc1ccccc1CNC(=O)c1nc2ccccc2s1 | 12.5 µg/mL (≈ 44.3 µM) | 42.6% | –
O=C(NCc1ccc2c(c1)OCO2)c1nc2ccccc2s1 | 6.25 µg/mL (≈ 20 µM) | 16.1% | –
NC(=O)c1cnccn1 [PYRAZINAMIDE] | 6.25 µg/mL (≈ 50.8 µM) | – | –
O=C(NCc1ccccc1Cl)c1nc2cc(Cl)ccc2s1 | 12.5 µg/mL (≈ 37.1 µM) | 36% | –
COc1ccc(CNC(=O)c2nc3ccccc3s2)cc1OC | 12.5 µg/mL (≈ 38.1 µM) | 19.1% | –
N#Cc1ccc(CNC(=O)c2nc3ccccc3s2)cc1 | 12.5 µg/mL (≈ 42.6 µM) | 36% | –
COc1ccccc1CNC(=O)c1nc2ccccc2s1 | 50 µg/mL (≈ 168 µM) | – | –
O=C(NCc1ccc(F)c(F)c1)c1nc2ccccc2s1 | 25 µg/mL (≈ 82.2 µM) | – | –
COc1ccc(CCNC(=O)c2nc3cc(Cl)ccc3s2)cc1OC | 12.5 µg/mL (≈ 33.2 µM) | 30.9% | –

SMILES | MIC99 [1] | cytotoxicity at 72 h, 50 ug/ml [2] | selectivity ratio [3]
COc1ccc(CNC(=O)c2nc3cc(Cl)ccc3s2)cc1OC | 6.25 µg/mL (≈ 17.2 µM) | 36.1% | –
COc1ccccc1CNC(=O)c1nc2cc(Cl)ccc2s1 | 12.5 µg/mL (≈ 37.6 µM) | 38.9% | –
COc1ccc(CNC(=O)c2nc3ccccc3s2)c(OC)c1 | 50 µg/mL (≈ 152 µM) | – | –
O=C(NCc1ccccc1)c1nc2cc(C(F)(F)F)ccc2s1 | 6.25 µg/mL (≈ 18.6 µM) | 40.1% | –
O=C(NCc1cc(F)ccc1F)c1nc2cc(Cl)ccc2s1 | 0.78 µg/mL (≈ 2.3 µM) | 32.2% | > 64
CO[C@H]1/C=C/O[C@@]2(C)Oc3c(C)c(O)c4c(O)c(c(/C=N/N5CCN(C)CC5)c(O)c4c3C2=O)NC(=O)/C(C)=C\C=C\[C@H](C)[C@H](O)[C@@H](C)[C@@H](O)[C@@H](C)[C@H](OC(C)=O)[C@@H]1C [RIFAMPIN] | 0.197 µg/mL (≈ 0.239 µM) | – | –
COc1ccc(CCNC(=O)c2nc3ccccc3s2)cc1OC | 25 µg/mL (≈ 73 µM) | – | –
CC(C)(C)c1ccc(CNC(=O)c2nc3ccccc3s2)cc1 | 50 µg/mL (≈ 154 µM) | – | –
CC[C@@H](CO)NCCN[C@@H](CC)CO [ETHAMBUTOL] | 1.56 µg/mL (≈ 7.64 µM) | – | –
O=C(NCc1ccc(C(F)(F)F)cc1)c1nc2ccccc2s1 | 12.5 µg/mL (≈ 37.2 µM) | 36.7% | –
O=C(NCc1ccc(Cl)cc1)c1nc2cc(Cl)ccc2s1 | 25 µg/mL (≈ 74.1 µM) | – | –
COc1ccc(CNC(=O)c2nc3ccccc3s2)cc1 | 25 µg/mL (≈ 83.8 µM) | – | –
Nc1ccc(CCNC(=O)c2nc3ccccc3s2)cc1 | 25 µg/mL (≈ 84.1 µM) | – | –
Cc1ccc(CNC(=O)c2nc3ccccc3s2)cc1 | 50 µg/mL (≈ 177 µM) | – | –
O=C(NCc1cccc(F)c1)c1nc2ccccc2s1 | 6.25 µg/mL (≈ 21.8 µM) | 44.6% | –
O=C(NCc1ccc(F)cc1)c1nc2cc(C(F)(F)F)ccc2s1 | 12.5 µg/mL (≈ 35.3 µM) | 38.7% | –
COc1ccc(CNC(=O)c2nc3ccccc3s2)cc1O | 25 µg/mL (≈ 79.5 µM) | – | –
O=C(NCc1ccccc1Cl)c1nc2ccccc2s1 | 6.25 µg/mL (≈ 20.6 µM) | 35.6% | –
O=C(NCc1ccc(F)cc1F)c1nc2ccccc2s1 | 25 µg/mL (≈ 82.2 µM) | – | –
NNC(=O)c1ccncc1 [ISONIAZID] | 0.098 µg/mL (≈ 0.715 µM) | – | –
O=C(NCc1ccc([N+](=O)[O-])cc1)c1nc2ccccc2s1 | 12.5 µg/mL (≈ 39.9 µM) | 38.1% | –
O=C(NCc1ccccc1)c1nc2ccccc2s1 | 3.12 µg/mL (≈ 11.6 µM) | 41.2% | –
